Source: paper PMC6289163 (Tuberculosis (Edinburgh, Scotland), 2018)

Tested on: clinical MDR isolate (TB4001)
Type: cell-based, Mycobacterium tuberculosis

SMILES	resistance of TB4001
NNC(=O)c1ccncc1 [Isoniazid]	resistant
CO[C@H]1/C=C/O[C@@]2(C)Oc3c(C)c(O)c4c(O)c(c(/C=N/N5CCN(C)CC5)c(O)c4c3C2=O)NC(=O)/C(C)=C\C=C\[C@H](C)[C@H](O)[C@@H](C)[C@@H](O)[C@@H](C)[C@H](OC(C)=O)[C@@H]1C [Rifampicin]	resistant
